What was measured:
[1] = biological target: T1, human B1R (bradykinin receptor 1) (Homo sapiens, UniProt P46663); assay: FLIPR Ca2+ assay (Fluo-4) on CHO K1 cells stably transfected with the human B1R gene (hB1R cells): % inhibition at 10 μM / IC50, agonist Lys-Des-Arg9-bradykinin; assay type: cell-based; conditions: for inhibition at 10 µM: CHO-K1, human B1R
T1 construct: expressed in transfected cells; host or cells: CHO K1 cells
T1 sequence (P46663 1-353): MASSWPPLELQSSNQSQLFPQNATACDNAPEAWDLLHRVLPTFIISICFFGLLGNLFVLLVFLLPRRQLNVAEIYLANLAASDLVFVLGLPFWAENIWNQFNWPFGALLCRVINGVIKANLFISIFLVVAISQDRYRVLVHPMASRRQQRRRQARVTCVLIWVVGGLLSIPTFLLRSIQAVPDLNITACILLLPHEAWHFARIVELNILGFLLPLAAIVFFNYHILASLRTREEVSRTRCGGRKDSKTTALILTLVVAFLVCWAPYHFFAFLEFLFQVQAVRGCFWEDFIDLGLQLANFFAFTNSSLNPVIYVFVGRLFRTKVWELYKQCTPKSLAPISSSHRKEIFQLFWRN
Outline: (§1)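 Antagonism is measured as the drop in peak Fluo-4 Ca2+ signal when the EC80 agonist follows 10–20 min compound exposure. The single-point screen uses 10 μM; IC50 uses several concentrations. Values are given as % of maximal achievable inhibition.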

[2] = biological target: T2, rat B1R (bradykinin receptor 1) (Rattus norvegicus, UniProt P97583); assay: FLIPR Ca2+ assay (Fluo-4) on CHO K1 cells stably transfected with the B1R gene of the rat (rB1R cells): % inhibition at 10 μM / IC50, agonist Des-Arg9-bradykinin; assay type: cell-based; conditions: for inhibition at 10 µM: CHO-K1, rat B1R
T2 construct: expressed in transfected cells; host or cells: CHO K1 cells
T2 sequence (P97583 1-337): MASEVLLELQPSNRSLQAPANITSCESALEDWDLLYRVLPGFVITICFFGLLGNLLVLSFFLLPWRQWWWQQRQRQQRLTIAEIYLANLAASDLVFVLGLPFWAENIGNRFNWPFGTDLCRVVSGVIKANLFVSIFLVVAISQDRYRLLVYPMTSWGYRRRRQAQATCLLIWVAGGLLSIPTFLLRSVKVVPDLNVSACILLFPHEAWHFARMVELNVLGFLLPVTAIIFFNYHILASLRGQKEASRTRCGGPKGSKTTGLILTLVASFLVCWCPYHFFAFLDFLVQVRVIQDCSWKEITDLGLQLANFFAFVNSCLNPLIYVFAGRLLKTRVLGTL
Outline: as §1

Row | SMILES | inhibition at 10 µM [1] [%] | inhibition at 10 µM [2] [%] | % Inhibition (human B1R) at 10 μM [1] [%] | % Inhibition (rat B1R) at 10 μM [2] [%]
1 | CC1(C)CC(NC(=O)C(c2ccccc2)c2ccccc2Cl)c2cc(C(=O)N3CCC4(CC3)CCN(c3ccncc3)CC4)ccc21 (stereo not shown) [Ind_CC-056, 2-(2-chlorophenyl)-N-[3,3-dimethyl-6-(9-pyridin-4-yl-3,9-diazaspiro[5.5]-undecane-3-carbonyl)-1,2-dihydro-inden-1-yl]-2-phenyl-acetamide] | 41 | 94 | – | –
2 | CC1(C)CC(NC(=O)Nc2ccc(Cl)c(Cl)c2)c2cc(C(=O)N3CCC4(CC3)CCN(c3ccncc3)CC4)ccc21 (stereo not shown) [Ind_CC-057] | – | – | 35 | 80
3 | CC1(C)Cc2ccc(C(=O)N3CCC4(CC3)CCN(c3ccncc3)CC4)cc2C1NC(=O)c1ccc(Cl)s1 (stereo not shown) [Ind_CC-066, 5-chloro-N-[2,2-dimethyl-6-(9-pyridin-4-yl-3,9-diazaspiro[5.5]undecane-3-carbonyl)-1,3-dihydro-inden-1-yl]-thiophene-2-carboxylic acid amide] | 82 | 98 | – | –
4 | CC1(C)Cc2ccc(C(=O)N3CCC4(CC3)CCN(c3ccncc3)CC4)cc2C1NC(=O)c1ccc(Cl)cc1Cl (stereo not shown) [Ind_CC-067, 2,4-dichloro-N-[2,2-dimethyl-6-(9-pyridin-4-yl-3,9-diazaspiro[5.5]undecane-3-carbonyl)-1,3-dihydro-inden-1-yl]-benzamide] | 94 | 101 | – | –
5 | COc1cc(C)c(C(=O)NC2CCc3ccc(C(=O)N4CCC5(CC4)CCN(c4cccnc4)CC5)cc32)c(C)c1 (stereo not shown) [Ind_CC-090, 4-methoxy-2,6-dimethyl-N-[6-(9-pyridin-3-yl-3,9-diazaspiro[5.5]undecane-3-carbonyl)-2,3-dihydro-1H-inden-1-yl]-benzamide] | 42 | 100 | – | –
6 | COc1cc(C)c(C(=O)NC2CCc3ccc(C(=O)N4CCC5(CC4)CCN(c4ccc(F)cc4)CC5)cc32)c(C)c1 (stereo not shown) [Ind_CC-091, N-[6-[9-(4-fluorophenyl)-3,9-diazaspiro[5.5]undecane-3-carbonyl]-2,3-dihydro-1H-inden-1-yl]-4-methoxy-2,6-dimethyl-benzamide] | 24 | 50 | – | –
7 | COc1cc(C)c(C(=O)NC2CCc3ccc(C(=O)N4CCC5(CCN(Cc6ccncc6)CC5)CC4)cc32)c(C)c1 (stereo not shown) [Ind_CC-092, 4-methoxy-2,6-dimethyl-N-[6-[9-(pyridin-4-yl-methyl)-3,9-diazaspiro[5.5]undecane-3-carbonyl]-2,3-dihydro-1H-inden-1-yl]-benzamide] | 78 | 101 | – | –
8 | COc1cc(C)c(C(=O)NC2CCc3ccc(C(=O)N4CCC5(CC4)CCC(c4ccc(F)cc4)(N(C)C)CC5)cc32)c(C)c1 (stereo not shown) [Ind_CC-093, N-[6-[9-dimethylamino-9-(4-fluorophenyl)-3-azaspiro[5.5]undecane-3-carbonyl]-2,3-dihydro-1H-inden-1-yl]-4-methoxy-2,6-dimethyl-benzamide] | 34 | 74 | – | –

Next, values leading:

Row | inhibition at 10 µM [1] [%] | inhibition at 10 µM [2] [%] | % Inhibition (human B1R) at 10 μM [1] [%] | % Inhibition (rat B1R) at 10 μM [2] [%] | SMILES
9 | 100 | 101 | – | – | CC1(C)CC(NC(=O)c2ccccc2C(F)(F)F)c2cc(C(=O)N3CCC4(CC3)CCN(c3ccncc3)CC4)ccc21 (stereo not shown) [Ind_CC-058, N-[3,3-dimethyl-6-(9-pyridin-4-yl-3,9-diazaspiro[5.5]undecane-3-carbonyl)-1,2-dihydro-inden-1-yl]-2-(trifluoromethyl)-benzamide]
10 | 100 | 102 | – | – | CC1(C)CC(NC(=O)c2ccc(Cl)cc2Cl)c2cc(C(=O)N3CCC4(CC3)CCN(c3ccncc3)CC4)ccc21 (stereo not shown) [Ind_CC-059, 2,4-dichloro-N-[3,3-dimethyl-6-(9-pyridin-4-yl-3,9-diazaspiro[5.5]undecane-3-carbonyl)-1,2-dihydro-inden-1-yl]-benzamide]
11 | 93 | 94 | – | – | CC1(C)CC(NC(=O)/C=C/c2ccccc2Cl)c2cc(C(=O)N3CCC4(CC3)CCN(c3ccncc3)CC4)ccc21 (stereo not shown) [Ind_CC-060, (E)-3-(2-chlorophenyl)-N-[3,3-dimethyl-6-(9-pyridin-4-yl-3,9-diazaspiro[5.5]undecane-3-carbonyl)-1,2-dihydro-inden-1-yl]-acrylamide]
12 | 100 | 103 | – | – | CC1(C)CC(NC(=O)NCc2ccccc2Cl)c2cc(C(=O)N3CCC4(CC3)CCN(c3ccncc3)CC4)ccc21 (stereo not shown) [Ind_CC-061, 1-[(2-chlorophenyl)-methyl]-3-[3,3-dimethyl-6-(9-pyridin-4-yl-3,9-diazaspiro[5.5]undecane-3-carbonyl)-1,2-dihydro-inden-1-yl]-urea]
13 | 95 | 101 | – | – | CC1(C)Cc2ccc(C(=O)N3CCC4(CC3)CCN(c3ccncc3)CC4)cc2C1NC(=O)c1ccccc1C(F)(F)F (stereo not shown) [Ind_CC-064, N-[2,2-dimethyl-6-(9-pyridin-4-yl-3,9-diazaspiro[5.5]undecane-3-carbonyl)-1,3-dihydro-inden-1-yl]-2-(trifluoromethyl)-benzamide]
14 | 94 | 98 | – | – | CC1(C)Cc2ccc(C(=O)N3CCC4(CC3)CCN(c3ccncc3)CC4)cc2C1NC(=O)c1sccc1Cl (stereo not shown) [Ind_CC-065, 3-chloro-N-[2,2-dimethyl-6-(9-pyridin-4-yl-3,9-diazaspiro[5.5]undecane-3-carbonyl)-1,3-dihydro-inden-1-yl]-thiophene-2-carboxylic acid amide]
15 | 99 | 101 | – | – | O=C(NC1CCc2ccc(C(=O)N3CCC4(CCN(c5ccncc5)CC4)C3)cc21)c1ccccc1C(F)(F)F (stereo not shown) [Ind_CC-081, N-[6-(8-pyridin-4-yl-3,8-diazaspiro[4.5]decane-3-carbonyl)-2,3-dihydro-1H-inden-1-yl]-2-(trifluoromethyl)-benzamide]
16 | 100 | 101 | – | – | O=C(NC1CCc2ccc(C(=O)N3CCC4(CCN(c5ccncc5)CC4)C3)cc21)C(c1ccccc1)c1ccccc1Cl (stereo not shown) [Ind_CC-082, 2-(2-chlorophenyl)-2-phenyl-N-[6-(8-pyridin-4-yl-3,8-diazaspiro[4.5]decane-3-carbonyl)-2,3-dihydro-1H-inden-1-yl]-acetamide]
17 | 90 | 85 | – | – | O=C(/C=C/c1ccccc1Cl)NC1CCc2ccc(C(=O)N3CCC4(CCN(c5ccncc5)CC4)C3)cc21 (stereo not shown) [Ind_CC-083, (E)-3-(2-chlorophenyl)-N-[6-(8-pyridin-4-yl-2,8-diazaspiro[4.5]decane-2-carbonyl)-2,3-dihydro-1H-inden-1-yl]-acrylamide]
18 | 99 | 100 | – | – | O=C(NC1CCc2ccc(C(=O)N3CCC4(CCN(c5ccncc5)CC4)C3)cc21)c1ccccn1 (stereo not shown) [Ind_CC-084, N-[6-(8-pyridin-4-yl-3,8-diazaspiro[4.5]decane-3-carbonyl)-2,3-dihydro-1H-inden-1-yl]-pyridine-2-carboxylic acid amide]
19 | – | – | 91 | 77 | O=C(Nc1ccc(Cl)c(Cl)c1)NC1CCc2ccc(C(=O)N3CCC4(CCN(c5ccncc5)CC4)C3)cc21 (stereo not shown) [Ind_CC-085]
20 | 100 | 99 | – | – | O=C(NCc1ccccc1Cl)NC1CCc2ccc(C(=O)N3CCC4(CCN(c5ccncc5)CC4)C3)cc21 (stereo not shown) [Ind_CC-086, 1-[(2-chlorophenyl)-methyl]-3-[6-(8-pyridin-4-yl-2,8-diazaspiro[4.5]decane-2-carbonyl)-2,3-dihydro-1H-inden-1-yl]-urea]

From patent publication US8455475B2 (Gruenenthal GmbH, priority 2009, dated 2013)
